# Assays:
# Assay type in all cases: cell-based
# [1] = system: KRAS mutants (G12V, G12C, G12D, G12C/Y96D, G13C, G13D, G13S, Q61K and Q61R); experiment: NanoBiT assay for RAS GTP-loading in HeLa cells, LgBit-KRAS mutants and SmBit-CRAF-RBD; conditions: 2 h in serum-free DMEM, normalized to DMSO
# Description: NanoBiT assay for the RAS GTP-loading was performed in HeLa cells transfected with LgBit-KRAS mutants and SmBit-CRAF-RBD. Cells were treated with Mitoxantrone HCl for 2 h in serum-free DMEM. After incubation, the substrate for NanoLuc was added, and the luminescence was measured in a multiplate reader. Data were normalized to cells transfected with the indicated mutant and exposed to DMSO for 2 h. DMSO-treated cells were set as 1. The bars represent mean±SEM from 3 independent experiments.
# sNF96.2 cells = experiment: RASOpathie-Model, MTT assay for cell viability in 96 well cell culture plate; conditions: 48 h treatment
# Description: FIG. 5: RASOpathie-Model of Mitoxantrone HCl; MTT assay for cell viability in 96 well cell culture plate
# Cells were treated with Mitoxantrone HCl for 48 h and cell viability was evaluated by MTT assay. DMSO-treated cells were set as 1. The results shown are mean±SEM from 3 independent experiments.
# BaF3 KRAS G12C cells = experiment: MTT assay for cell viability in 96 well cell culture plate; conditions: Mus musculus, 48 h treatment
# ASPC1 cells = experiment: Soft agar colony formation assay with MTT readout; conditions: Homo sapiens, growth in soft agar, colonies stained with MTT, absorbance 570 nm, 3 independent experiments
# Description: (§1) Metabolic activity was quantified using Cell Proliferation Kit I (Roche, Basel, Switzerland). Cells were seeded in 96-well cell culture plates, using 5000 cells per well for NCI-H358 cells. After treatment, 10 μl of MTT solution was added and incubated for 2 h in CO2 incubator. Then 100 μl of solubilization buffer was added to each well and incubated overnight in CO2 incubator. Cell viability, assessed by the amount of metabolized MTT, was quantified by measuring absorbance at 570 nm.
# (§2) MTT assay for the growth of different tumor cell lines with RAS mutations in soft agar with Mitoxantrone hydrochloride. Shown are data from three independent experiments. NCI-H358, H358, H2122, ASPC-1, HCT-116, T24 and HT1080 cells were used for the soft agar colony formation assay. After the treatment with Mitoxantrone HCl, the colonies were stained with MTT and the value was quantified by measuring absorbance at 570 nm after solubilization. The results represent mean±SEM from 3 independent experiments.
# T24 cells = experiment: Soft agar colony formation assay with MTT readout; conditions: Homo sapiens; growth in soft agar, colonies stained with MTT, absorbance 570 nm, 3 independent experiments
# Description: as §1, §2
# NCI-H358 cells = experiment: Soft agar colony formation assay with MTT readout; conditions: Homo sapiens, growth in soft agar, colonies stained with MTT, absorbance 570 nm, 3 independent experiments
# Description: as §1, §2
# HCT-116 cells = experiment: Soft agar colony formation assay with MTT readout; conditions: Homo sapiens, growth in soft agar, colonies stained with MTT, absorbance 570 nm, 3 independent experiments
# Description: as §1, §2
# HT1080 cells = experiment: Soft agar colony formation assay with MTT readout; conditions: Homo sapiens, HT-1080; growth in soft agar, colonies stained with MTT, absorbance 570 nm, 3 independent experiments
# Description: as §1, §2
# NCI-H2122 cells = experiment: Soft agar colony formation assay with MTT readout; conditions: Homo sapiens, growth in soft agar, colonies stained with MTT, absorbance 570 nm, 3 independent experiments
# Description: as §1, §2
# KRAS G12V = target: T1, KRAS G12V (Homo sapiens, UniProt P01116, G12V); experiment: NanoBit assay for RAS activation (LgBiT-RAS / SmBiT-CRAF RBD); conditions: 2 h with inhibitor in serum free DMEM
# T1 construct: K, N and HRAS G12V (full length) was cloned with Xho I and Bgl Ito LgBit; expressed in transfected cells
# Description: (§3) N-terminal LgBiT and C-terminal SmBiT construct was purchased from Promega and K, N and HRAS G12V (full length) was cloned with Xho I and Bgl Ito LgBit and CRAF Ras binding domain (1-149) was cloned with EcoRI and Bgl II to SmBit. For transfections, 1 μg or 2 μg of (12 well/6 well) plasmids were transfected into cells with 0.5 mM of PEI reagent in 100 μl or 200 μl PBS. One day after transfection, cells were harvested and seeded into 96 well white plates, half area (Greiner). After an additional day the medium was changed to serum free DMEM and the cells were incubated for 2 h with inhibitor. NanoGlo assay was performed according to the manufacturer's instructions. The luminescence was measured using Tecan infinite (Tecan).
# NRAS G12V = target: T2, NRAS G12V (Homo sapiens, UniProt P01111, G12V); experiment: as above; conditions: 2 h with inhibitor in serum free DMEM
# T2 construct: K, N and HRAS G12V (full length) was cloned with Xho I and Bgl Ito LgBit; expressed in transfected cells
# T2 sequence (P01111 whole entry G12V): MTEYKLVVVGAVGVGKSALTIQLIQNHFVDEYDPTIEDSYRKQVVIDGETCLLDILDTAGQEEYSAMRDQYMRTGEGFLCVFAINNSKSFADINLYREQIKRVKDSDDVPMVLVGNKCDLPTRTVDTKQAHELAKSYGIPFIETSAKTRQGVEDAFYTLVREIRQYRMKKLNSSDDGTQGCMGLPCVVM
# Description: as §3
# HRAS G12V = target: T3, HRAS G12V (Homo sapiens, UniProt P01112, G12V); experiment: as above; conditions: 2 h with inhibitor in serum free DMEM
# T3 construct: K, N and HRAS G12V (full length) was cloned with Xho I and Bgl Ito LgBit; expressed in transfected cells
# Description: as §3
# [2] = system: BaF3 KRAS G12C/Y96D cells; experiment: MTT assay for cell viability in 96 well cell culture plate; conditions: Mus musculus, 48 h treatment
structure (smiles),measurement,setting,value
"Cl.Cl.O=C1c2c(O)ccc(O)c2C(=O)c2c(NCCNCCO)ccc(NCCNCCO)c21 [Mitoxantrone HCl, 1,4-dihydroxy-5,8-bis({2-[(2-hydroxy-ethyl)amino]ethyl}amino)-9,10-anthrachinone dihydrochloride]",RAS activation / GTP-loading of KRAS mutants (NanoBiT luminescence),[1],inhibits
same,IC50,sNF96.2 cells,3.71 µM
same,IC50,BaF3 KRAS G12C cells,24.2 µM
same,IC50,ASPC1 cells,0.6 µM
same,IC50,T24 cells,0.43 µM
same,IC50,NCI-H358 cells,1.5 µM
same,IC50,HCT-116 cells,0.27 µM
same,IC50,HT1080 cells,0.13 µM
same,IC50,NCI-H2122 cells,0.25 µM
same,"RAS activation, K-RAS (NanoBit luminescence)",KRAS G12V,inhibits
same,"RAS activation, N-RAS (NanoBit luminescence)",NRAS G12V,inhibits
same,"RAS activation, H-RAS (NanoBit luminescence)",HRAS G12V,inhibits
same,IC50,[2],24 µM
